Source: patent US20230346743A1, “COMBINATION CANCER THERAPIES” (The Board of Regents of the University of Oklahoma, priority 2018, published 2023)

Tests used:
[1] = test system: Mycobacterium bovis BCG; settings: Table of Brown et al., 2004; cited from earlier work
[2] = test system: p21; assay: Western blots of p21 in ovarian cancer cell lines; type: cell-based, human; settings: A2780, SKOV3, SKOV3 R273H, SKOV3 R248W
Procedure: Proteins were extracted from cell cultures using M-PER mammalian protein extraction reagent (ThermoFisher, Waltham, MA, USA) and volumes corresponding to 30 µg determined with BCA reagent (ThermoFisher, Waltham, MA, USA) were electrophoresed into a SDS-PAGE gel and transferred to PVDF membranes. Membranes were blocked (5% dry skim milk powder in TBST buffer) for at least 1 h or overnight, washed thrice with TBST and then incubated with primary antibody: p53 DO-1, β-actin, histone H3, GAPDH (Santa Cruz Biotechnology, Dallas, TX, USA) and mortalin, Tom20, V5 tag antibodies, p21, PARP, SLC7A11, caspase 3 (Cell Signaling Technology, Danvers, MA, USA) for at least 1 h or overnight. After three washes, membranes were incubated with anti-mouse HRP conjugated (Santa Cruz Biotechnology, Dallas, TX, USA) or anti-Rabbit HRP conjugated (Cell Signaling Technology, Danvers, MA, USA) for 40 min. Membranes then were washed and developed with ECL reagents (BioRad, Hercules, CA, USA). Bands were imaged and quantified (ChemiDoc imaging system with Image Lab Software/BioRad).

[3] = test system: TP21 gene; assay: qRT-PCR of TP21 in SKOV3 cells; type: cell-based, human; settings: SKOV3 parental (p53 null) and R273H m-p53 cells; SHetA2 10 µM, PRIMA-1 20 µM, 16 h
[4] = test system: SKOV3 R273H; assay: MTT cytotoxicity assay; type: cell-based; settings: Homo sapiens, SK-OV-3; SKOV3 permanently transfected with R273H m-p53, MTT
Procedure: Cells plated at 2000 cells/well in 96 well microtiter plates were incubated for 36-48 h and treated with a range of doses and combinations of SHetA2 and PRIMA-1 or PRIMA-1^MET, or the same volume of DMSO solvent for 72 h of incubation. The percentage of growth for single drug treatments or fold effect (1 - ratio of treated/untreated growth) was measured using the CellTiter 96 AQueous Non-Radioactive Cell Proliferation Assay (Promega, Madison, WI, USA) and the BioTeK SYNERGY H1 (BioTeK, Winooski, VT, USA). Each experiment was performed in triplicate and repeated 2-3 times.
The potencies (IC50′s) of SHetA2 or PRIMA-1 were determined using GraphPad Prism 6 software analysis of average MTT Optical Density vs drug dose. […] Single drug treatments at doses surrounding the IC50 values were evaluated parallel. All treatments were performed in triplicate and averages used to draw isobolograms and calculate combination indices (CI) and dose-reduction indices (DRIs) using CompuSyn Software according to the Chou and Talalay method (op cit). All experiments were repeated at least twice for each cell line to confirm results.

[5] = test system: parental SKOV-3 cells; assay: MTT cytotoxicity assay; type: cell-based, human; settings: parental SKOV-3 p53 null cells
[6] = test system: Cervical Cancer; assay: Dose reduction index at various fold effects in cervical cancer; type: cell-based, human; parameters: Palbociclib Dose: unit not given beside the values; settings: cell line not named
Excerpt: Combination Indices (CI's) were derived to determine the level of synergy using the Chow and Talalay method. […] The Dose Reduction Indices (DRIs) were derived to determine the level of reduction for one drug that could be allowed by addition of the second drug at various fold effects (Fas) of the combination treatment (Table 16).

[7] = Toxicity in the MESOV mouse model (body weight, ascites, kidney and liver histology); type: in vivo
Procedure: (§1) Four-week-old female athymic nude mice (NCr-Foxn1^nu) were obtained from Taconic Biosciences under an approved Institutional Animal Care and Use Committee (IACUC) protocol. Mice were acclimatized for two weeks, fed with a standard diet and ear tagged during the acclimatization period. The timing to tumor development after intraperitoneal injection with various amounts of MESOV cells was determined in a pilot study prior. In the intervention experiment, 6-week-old mice were injected with 20 million MESOV human ovarian cancer cells in their intraperitoneal region. Drug treatment was initiated 4 weeks after the injection of cancer cells. Mice were randomized to four treatment groups before the start of treatment based on their body weight. There was no significant (one-way ANOVA, p >0.999) difference in body weight between groups at the start of treatment. Twelve mice were allocated to each group based on the power analysis performed while designing experiment. The sample size was determined to provide over 80% power to detect a 915 mm^3 difference in tumor volume between PRIMA-1^MET treatment alone and the drug combination treatment using a two-sided 0.05 level t-test. SHetA2 was administered by gavage at 60 mg/kg in 30% Kolliphor HS15 (Sigma). Controls were gavaged with Kolliphor HS15 (30% in water). PRIMA-1^MET (10 mg/kg) was dissolved in phosphate buffered saline and injected into the peritoneum of mice every other day. Initially SHetA2 dosing was administered every day for two weeks in SHetA2 alone and drug combination groups, and then switched to every other day for the next three weeks due to the stress caused to the mice by daily gavage. Oral gavaging was performed with sterile disposable plastic feeding tubes 20 ga × 38 mm (Instech Laboratories, Inc., Plymouth Meeting, PA, USA). Three mice in the drug combination group died after two weeks of drug treatment due to gavaging incidents. Body weights were recorded and animal health was monitored weekly. After the end of drug intervention period, all mice were euthanized by CO2 asphyxiation followed by exsanguination, their tumors and other vital organs were collected for further analysis. After measuring the total tumor weight, a portion of the tumors were snap frozen in liquid nitrogen and another portion was formalin fixed. The formalin fixed tissue samples were paraffin embedded, sectioned and stained with hematoxylin and eosins for histology studies. An experienced pathologist reviewed blinded histology slides for kidney and liver toxicity.

[8] = infusion in cancer patients; cited from earlier work
[9] = test system: MESOV human ovarian cancer cells; assay: Tumor establishment after intraperitoneal injection of MESOV cells (secondary chemoprevention model); type: in vivo; settings: nu/nu mice, MESOV i.p.
Procedure: as §1, with “The sample size was determined to provide over 80% power to detect a 915 mm^3 difference in tumor volume between PRIMA-1^MET treatment alone and the drug combination treatment using a two-sided 0.05 level t-test. SHetA2 was administered by gavage at 60 mg/kg in 30% Kolliphor HS15 (Sigma).” left out, “PRIMA-1^MET” left out, “toxicity. Presence or absence of tumor at the end of the treatment period was used as the primary outcome measure. […] Two by two logistic regression was used to compare the four treatment groups (Untreated control, SHetA2, […] combination) in the study. Mice in the first 3 groups had complete data, while 3 mice in the combo group died early and had zero tumor weights. […]” for “toxicity.”

[10] = test system: R282W m-p53; assay: P53 luciferase reporter assay in MESOV cells; type: cell-based, human; settings: 60 µM PRIMA-1^MET, 24 h
Procedure: To determine the transcriptional activity of p53, MESOV cells were transfected with PG13-Luc plasmids. Approximately 5,000 transfected cells were seeded on to each well of 96-well plate and incubated overnight. These cells were treated with either control solvent, 5 µM SHetA2 or 60 µM PRIMA-1^MET for 24 h. Luciferase activity of the reporter was measured with the One-glo luciferase reporter assay kit (Promega, Madison, WI, USA) and a Biotek Synergy H1 plate reader (BioteK, Winooski, VT, USA). The MTT assay was performed in parallel cultures and used to normalize the p53 reporter activity to the amount of viable cells.

Q: With `COc1ccc2c(c1NC(=S)Nc1ccc([N+](=O)[O-])cc1)C(C)(C)COC2(C)C` as the compound, how does the “range” value [1] read?
A: Its value is 20.0-40.0.

Q: For `CC(=C/C=N/NC(N)=S)/C=C/c1ccc2c(c1)C(C)CC(C)(C)N2C` (stereo not shown), which “range” value [1] is on record?
A: Its value is 10.0-20.0.

Q: For `CCOC(=O)c1ccc(NC(=O)Nc2ccc3c(c2)C(C)=CC(C)(C)N3C)cc1`, which “range” value [1] is on record?
A: Its value is 20.0-40.0.

Q: With `CCOC(=O)c1ccc(NC(=O)Nc2ccc3c(c2)C(C)(C)CC(C)(C)O3)cc1` as the compound, how does the “range” value [1] read?
A: The value was 20.0-40.0.

Q: Which “range” value [1] does the source give for `CCOC(=O)c1ccc(NC(=S)Nc2cccc3c2OC(C)(C)CC3(C)C)cc1` here?
A: The value was 20.0-40.0.

Q: Which “range” value [1] does the source give for `CCOC(=O)c1ccc(NC(=S)Nc2ccc3c(c2)C(C)(C)CC(C)(C)S3)cc1` here?
A: Its value is 20.0-40.0.

Q: With `CCOC(=O)c1ccc(NC(=O)Nc2cccc3c2OC(C)(C)CC3(C)C)cc1` as the compound, how does the “range” value [1] read?
A: The value was 20.0-40.0.

Q: For `CCOC(=O)c1ccc(NC(=S)Nc2ccc3c(c2)C(C)(C)CC(C)(C)O3)cc1`, which “range” value [1] is on record?
A: Its value is 5.0-10.0.

Q: What does the source list for `O=C1C2CCN(CC2)C1(CO)CO` [PRIMA-1, 2,2-Bishydroxymethyl-1-azabicyclo[2.2.2]octan-3-one, reference compound]?
A: p21 protein (Western blot) [2]: only induced p21 protein expression in A2780 (wt p53); TP21 transcription (qRT-PCR) [3]: did not induce TP21 transcription; IC50 [4]: 40 µM; PRIMA-1 sensitivity [5]: resistant

Q: For `CCOC(=O)c1ccc(NC(=O)Nc2ccc3c(c2)C(C)(C)CC(C)(C)S3)cc1`, which “range” value [1] is on record?
A: The value was 20.0-40.0.

Q: With `CCOC(=O)c1ccc(NC(=S)Nc2ccc3c(c2)C(C)=CC(C)(C)N3C)cc1` as the compound, how does the “range” value [1] read?
A: The value was 20.0-40.0.

Q: What does the source list for `CC(=O)c1c(C)c2cnc(Nc3ccc(N4CCNCC4)cn3)nc2n(C2CCCC2)c1=O` [Palbociclib, reference compound]?
A: Palbociclib Dose ([6]; Fold Effect (Fa) 0.05): 7.16; Palbociclib Dose ([6]; Fold Effect (Fa) 0.75): 24.03; Palbociclib Dose ([6]; Fold Effect (Fa) 0.90): 80.72; Palbociclib Dose ([6]; Fold Effect (Fa) 0.95): 184.00

Q: With `COCC1(CO)C(=O)C2CCN1CC2` (stereo not shown) [PRIMA-1^MET, 2-(hydroxymethyl)-2-(methoxymethyl)-1-azabicyclo [2.2.2]octan-3-one] as the compound, how does the “Kidney or liver toxicity (H & E histology)” value ([7]; mouse, in vivo, ip) read?
A: The value was “did not cause kidney or liver toxicity”.

Q: What about the “Average body weights compared with mock group” value ([7]; nu/nu mice, MESOV i.p.) of the same compound?
A: The value was “significantly higher than the mock group”.

Q: And the “Effects on body weight or ascites (abdominal size)” value ([7]; nu/nu mice, MESOV i.p.)?
A: Its value is “no significant effects on body weight or ascites”.

Q: What about the Clinical safety [8] of the same compound?
A: The Clinical safety was “relatively safe with fully reversible central nervous system-related side effects”.

Q: And the “OR for preventing tumor development (additive logistic regression model)” value [9]?
A: The value was 4.464.

Q: And the Tumor-free rates ([9]; SHetA2 60 mg/kg gavage, PRIMA-1^MET 10 mg/kg i.p., treatment from day 28 for 38 days)?
A: Its Tumor-free rates is 25%.

Q: What about the “p53 transcriptional activity (PG13-Luc reporter)” value [10] of the same compound?
A: The value was “reactivation of R282W m-p53 in MESOV was observed”.

Q: Which “range” value [1] does the source give for `COC(=O)c1ccc(C(=O)Oc2ccc3c(c2)OC(C)(C)C=C3C)cc1` here?
A: The value was 2.0-4.0.

Q: Which “range” value [1] does the source give for `COc1ccc2c(c1NC(=S)NC(=O)c1ccc([N+](=O)[O-])cc1)C(C)(C)COC2(C)C` here?
A: The value was 20.0-40.0.

Q: For `CC1=CC(C)(C)N(C)c2ccc(NC(=S)Nc3ccc([N+](=O)[O-])cc3)cc21`, which “range” value [1] is on record?
A: Its value is 20.0-40.0.

Q: For `CC1(C)CC(C)(C)c2cccc(NC(=S)Nc3ccc([N+](=O)[O-])cc3)c2O1`, which “range” value [1] is on record?
A: The value was 20.0-40.0.

Q: Which “range” value [1] does the source give for `CC(C)CCOc1ccc(NC(=S)Nc2ccc(OCCC(C)C)cc2)cc1` here?
A: The value was 0.5-1.0.

Q: Which “range” value [1] does the source give for `CC1(C)CC(C)(C)c2cc(NC(=S)Nc3ccc([N+](=O)[O-])cc3)ccc2O1` here?
A: Its value is 20.0-40.0.
